The values that follow are results of earlier work, collected in patent US20110105443A1, “SALTS OF MEMANTINE AND COX-INHIBITORS AND THEIR CRYSTAL FORM IN THE TREATMENT OF PAIN” (LABORATORIES DEL DR. ESTEVE, S.A., priority 2008, published 2011).

The conditions of the data set: stated property of the free drug (base or acid), no method given.

A word on the pKa: it is the pH at which an ionisable group is half protonated. Take `CC(=O)Oc1cc(C(F)(F)F)ccc1C(=O)O` [Triflusal, 2-acetoxy-4-trifluoromethyl-benzoic acid]: the pKa was 3.34.
